Measured values from patent US10183022B2, “Pharmaceutical composition for treating ulcerative colitis” (EA Pharma Co., Ltd., priority 2014, dated 2019).

Tested on: ulcerative colitis patients in an active stage
Assay: Clinical study, 960 mg orally 3 times a day for 8 weeks: subscore for bloody stool of Mayo score, bloody-stool disappearance rate
Assay type: in vivo, human
Parameters: Cases by subscore for bloody stool, figure in parentheses: unit not given here
Protocol: The compound of Example 1 or the compound of Comparative Example 1 was orally administered after meals 3 times a day. The number of the given tablets was 8 per administration (i.e., the amount of the compound (1) of Example 1 administered was 960 mg per administration). The administration period was 8 weeks. The compounds were administered until the timing after the breakfast on the day before the assessment day at Week 8.
(2) Bloody Stool [Investigation Timings: Weeks 0, 2, 4, and 8 (or Discontinuation Time)]
Based on the contents described in the symptom-recording diaries, the investigators or sub-investigators investigated the states of bloody stool in 3 days immediately before each assessment day. Note that when the endoscopic examination on the large intestine was conducted, the investigation days were set to be the closest three days excluding the day of the endoscopic examination on the large intestine, the following day, and if a pre-treatment was performed for the endoscopic examination on the large intestine, the pre-treatment day.
The bloody stool state on the most severe day among the investigated three days was scored according to the following criteria.

COC(=O)[C@H](Cc1ccc(-n2c(=O)c3cc(N(C)C)ccc3n(C)c2=O)cc1)NC(=O)c1c(Cl)cccc1Cl [Example 1, methyl(2S)-2-(2,6-dichlorobenzamide)-3-{4-[6-(dimethylamino)-1-methyl-2,4-dioxo-1,4-dihydroquinazolin-3(2H)-yl]phenyl}propanoate]
Cases by subscore for bloody stool, figure in parentheses (Week 0, score 1): 45.1 | Number of cases by subscore for bloody stool (Week 0, score 1): 23 | Cases by subscore for bloody stool, figure in parentheses (Week 0, score 2): 47.1 | Number of cases by subscore for bloody stool (Week 0, score 2): 24 | Cases by subscore for bloody stool, figure in parentheses (Week 0, score 3): 7.8 | Number of cases by subscore for bloody stool (Week 0, score 3): 4 | Cases by subscore for bloody stool, figure in parentheses (Week 2, score 0): 9.8 | Number of cases by subscore for bloody stool (Week 2, score 0): 5 | Cases by subscore for bloody stool, figure in parentheses (Week 2, score 1): 54.9 | Number of cases by subscore for bloody stool (Week 2, score 1): 28 | Cases by subscore for bloody stool, figure in parentheses (Week 2, score 2): 33.3 | Number of cases by subscore for bloody stool (Week 2, score 2): 17 | Cases by subscore for bloody stool, figure in parentheses (Week 2, score 3): 2.0 | Number of cases by subscore for bloody stool (Week 2, score 3): 1 | Number of cases, cross tabulation of subscore for bloody stool (Week 2 score 0, Week 0 score 1): 2 | Number of cases, cross tabulation of subscore for bloody stool (Week 2 score 0, Week 0 score 2): 2 | Number of cases, cross tabulation of subscore for bloody stool (Week 2 score 0, Week 0 score 3): 1 | Number of cases, cross tabulation of subscore for bloody stool (Week 2 score 1, Week 0 score 1): 18 | Number of cases, cross tabulation of subscore for bloody stool (Week 2 score 1, Week 0 score 2): 8 | Number of cases, cross tabulation of subscore for bloody stool (Week 2 score 1, Week 0 score 3): 2 | Number of cases, cross tabulation of subscore for bloody stool (Week 2 score 2, Week 0 score 1): 3 | Number of cases, cross tabulation of subscore for bloody stool (Week 2 score 2, Week 0 score 2): 14 | Number of cases, cross tabulation of subscore for bloody stool (Week 2 score 2, Week 0 score 3): 0 | Number of cases, cross tabulation of subscore for bloody stool (Week 2 score 3, Week 0 score 1): 0 | Number of cases, cross tabulation of subscore for bloody stool (Week 2 score 3, Week 0 score 2): 0 | Number of cases, cross tabulation of subscore for bloody stool (Week 2 score 3, Week 0 score 3): 1 | Cases by subscore for bloody stool, figure in parentheses (Week 4, score 0): 35.3 | Number of cases by subscore for bloody stool (Week 4, score 0): 18 | Cases by subscore for bloody stool, figure in parentheses (Week 4, score 1): 43.1 | Number of cases by subscore for bloody stool (Week 4, score 1): 22 | Cases by subscore for bloody stool, figure in parentheses (Week 4, score 2): 19.6 | Number of cases by subscore for bloody stool (Week 4, score 2): 10 | Cases by subscore for bloody stool, figure in parentheses (Week 4, score 3): 2.0 | Number of cases by subscore for bloody stool (Week 4, score 3): 1 | Number of cases, cross tabulation of subscore for bloody stool (Week 4 score 0, Week 0 score 1): 9 | Number of cases, cross tabulation of subscore for bloody stool (Week 4 score 0, Week 0 score 2): 8 | Number of cases, cross tabulation of subscore for bloody stool (Week 4 score 0, Week 0 score 3): 1 | Number of cases, cross tabulation of subscore for bloody stool (Week 4 score 1, Week 0 score 1): 12 | Number of cases, cross tabulation of subscore for bloody stool (Week 4 score 1, Week 0 score 2): 9 | Number of cases, cross tabulation of subscore for bloody stool (Week 4 score 1, Week 0 score 3): 1 | Number of cases, cross tabulation of subscore for bloody stool (Week 4 score 2, Week 0 score 1): 2 | Number of cases, cross tabulation of subscore for bloody stool (Week 4 score 2, Week 0 score 2): 7 | Number of cases, cross tabulation of subscore for bloody stool (Week 4 score 2, Week 0 score 3): 1 | Number of cases, cross tabulation of subscore for bloody stool (Week 4 score 3, Week 0 score 1): 0 | Number of cases, cross tabulation of subscore for bloody stool (Week 4 score 3, Week 0 score 2): 0 | Number of cases, cross tabulation of subscore for bloody stool (Week 4 score 3, Week 0 score 3): 1 | Difference in bloody-stool disappearance rates, Example 1 vs Comparative Example 1 (placebo) (Week 8): 29.4% | Bloody-stool disappearing cases (Week 8, 51 cases analyzed): 25 | Bloody-stool disappearance rate (Week 8, all subjects): 49.0% | Cases by subscore for bloody stool, figure in parentheses (Week 8, score 0): 49.0 | Number of cases by subscore for bloody stool (Week 8, score 0): 25 | Cases by subscore for bloody stool, figure in parentheses (Week 8, score 1): 37.3 | Number of cases by subscore for bloody stool (Week 8, score 1): 19 | Cases by subscore for bloody stool, figure in parentheses (Week 8, score 2): 11.8 | Number of cases by subscore for bloody stool (Week 8, score 2): 6 | Cases by subscore for bloody stool, figure in parentheses (Week 8, score 3): 2.0 | Number of cases by subscore for bloody stool (Week 8, score 3): 1 | Number of cases, cross tabulation of subscore for bloody stool (Week 8 score 0, Week 0 score 1): 13 | Number of cases, cross tabulation of subscore for bloody stool (Week 8 score 0, Week 0 score 2): 9 | Number of cases, cross tabulation of subscore for bloody stool (Week 8 score 0, Week 0 score 3): 3 | Number of cases, cross tabulation of subscore for bloody stool (Week 8 score 1, Week 0 score 1): 8 | Number of cases, cross tabulation of subscore for bloody stool (Week 8 score 1, Week 0 score 2): 11 | Number of cases, cross tabulation of subscore for bloody stool (Week 8 score 1, Week 0 score 3): 0 | Number of cases, cross tabulation of subscore for bloody stool (Week 8 score 2, Week 0 score 1): 2 | Number of cases, cross tabulation of subscore for bloody stool (Week 8 score 2, Week 0 score 2): 4 | Number of cases, cross tabulation of subscore for bloody stool (Week 8 score 2, Week 0 score 3): 0 | Number of cases, cross tabulation of subscore for bloody stool (Week 8 score 3, Week 0 score 1): 0 | Number of cases, cross tabulation of subscore for bloody stool (Week 8 score 3, Week 0 score 2): 0 | Number of cases, cross tabulation of subscore for bloody stool (Week 8 score 3, Week 0 score 3): 1
